# Source: PubChem BioAssay AID1845205 (Molecular Pharmacology Branch, DTP, NCI, 2023)
# Tested on: MPNST multicellular tumor spheroids, viability % test/control
# Assay: Anticancer human tumor MPNST cell line growth inhibition;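 also: spheroids exposed to agents for seven days after three days of growth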;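 as to viability, T/C: luminescence signal used as surrogate for viable cell amount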
# Details: for IC50: curve of first compound; for viability, T/C: stronger effect = lower value
# In short: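 Complex spheroids of malignant cells with endothelial cells and mesenchymal stem cells; agents alone or combined, from near clinical Cmax (or 10 microM if unknown) down in half-log steps, 0.25% DMSO final.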
smiles,measurement,setting,value
COc1ccc([C@@H](O)c2cc(-c3ncnc4cc(N5CCOCC5)ccc34)c(F)cc2Cl)nn1 + Cn1nnc2c(C(N)=O)ncn2c1=O,IC50,second compound 1 µM,1650 nM
same,IC50,second compound 3.16 µM,1510 nM
same,IC50,second compound 10 µM,1820 nM
same,IC50,second compound 31.6 µM,2070 nM
same,IC50,second compound 100 µM,1580 nM
same,"viability, T/C","second compound 1 µM, first compound 0.0316 µM",93.3%
same,"viability, T/C","second compound 1 µM, first compound 0.1 µM",90.2%
same,"viability, T/C","second compound 1 µM, first compound 0.316 µM",73.2%
same,"viability, T/C","second compound 1 µM, first compound 1 µM",59%
same,"viability, T/C","second compound 1 µM, first compound 3.16 µM",39.5%
same,"viability, T/C","second compound 1 µM, first compound 10 µM",23%
same,"viability, T/C","second compound 3.16 µM, first compound 0.0316 µM",76.4%
same,"viability, T/C","second compound 3.16 µM, first compound 0.1 µM",99.1%
same,"viability, T/C","second compound 3.16 µM, first compound 0.316 µM",80%
same,"viability, T/C","second compound 3.16 µM, first compound 1 µM",57.7%
same,"viability, T/C","second compound 3.16 µM, first compound 3.16 µM",35.9%
same,"viability, T/C","second compound 3.16 µM, first compound 10 µM",23.4%
same,"viability, T/C","second compound 10 µM, first compound 0.0316 µM",86.8%
same,"viability, T/C","second compound 10 µM, first compound 0.1 µM",74.9%
same,"viability, T/C","second compound 10 µM, first compound 0.316 µM",73%
same,"viability, T/C","second compound 10 µM, first compound 1 µM",65.5%
same,"viability, T/C","second compound 10 µM, first compound 3.16 µM",36.6%
same,"viability, T/C","second compound 10 µM, first compound 10 µM",24.2%
same,"viability, T/C","second compound 31.6 µM, first compound 0.0316 µM",81.2%
same,"viability, T/C","second compound 31.6 µM, first compound 0.1 µM",72.8%
same,"viability, T/C","second compound 31.6 µM, first compound 0.316 µM",75.2%
same,"viability, T/C","second compound 31.6 µM, first compound 1 µM",66.5%
same,"viability, T/C","second compound 31.6 µM, first compound 3.16 µM",40.4%
same,"viability, T/C","second compound 31.6 µM, first compound 10 µM",26.4%
same,"viability, T/C","second compound 100 µM, first compound 0.0316 µM",76.3%
same,"viability, T/C","second compound 100 µM, first compound 0.1 µM",90.8%
same,"viability, T/C","second compound 100 µM, first compound 0.316 µM",68.4%
same,"viability, T/C","second compound 100 µM, first compound 1 µM",57.7%
same,"viability, T/C","second compound 100 µM, first compound 3.16 µM",39.7%
same,"viability, T/C","second compound 100 µM, first compound 10 µM",25.6%
